Experimental data from US7417053B2, “Pyrazolo[1,5-a]pyridine derivatives or pharmaceutically acceptable salts thereof” (Teijin Pharma Limited, priority 2005, dated 2008).
Counter-ions that a name gives are not always drawn.

Molecular target: recombinant human MAPKAP-K2 (Homo sapiens, UniProt P49137)
Experiment: Inhibitory activity against MAPKAP-K2 enzyme (33P-ATP peptide phosphorylation)
Type: biochemical
Conditions: recombinant human MAPKAP-K2, ATP 20 μmol/L solution, room temperature 30 min; read-out: Activity Strength (MAPKAP-K2 IC50 value)
Method: General Measurement Method for Determining the Inhibitory Activity Against MAPKAP-K2 enzyme
(Preparation of Solutions of Compounds)
Each compound was dissolved in DMSO to prepare a solution with a concentration of 20 mmol/L and this solution was stored at −20° C. This stock solution was diluted with DMSO successively to prepare solutions with 200-fold concentrations of a necessary range. These solutions were further diluted with water at a ratio of 1:20 to prepare solutions with 10-fold concentrations of a necessary range. Each of these solutions (5 μL) was used for each reaction in 50 μL-scale. Through the dilution series of all compounds, the final DMSO concentration was kept at 0.5%. Conventional tests for the compounds were carried out at a final concentration range from 100 μmol/L to 0.03 μmol/L. but in some cases, tests were carried out at lower concentrations, depending on activity.
(Measurements of MAPKAP-K2 Enzyme Activities)
To a 5% DMSO aqueous solution (5 μL) of a test compound, a solution (25 μL) containing a peptide substrate [peptide substrate 60 μmol/L, ATP 20 μmol/L, Tris buffer 60 mmol/L (pH 7.5), EGTA 0.2 mmol/L, β-mercaptoethanol 0.2%, magnesium acetate 20 mmol/L, [γ-33P]ATP 0.1 μCi (specific radioactivity ca. 110 TBq/mmol)] was added. The reaction was initiated by adding a solution (20 μL) containing MAPKAP-K2 enzyme [recombinant human MAPKAP-K2 10 mU, Tris buffer […] (pH 7.5), EGTA 0.1 mmol/L, β-mercaptoethanol 0.1%, BSA 0.1%]. After the reaction was carried out at room temperature for 30 min, 200 mmol/L phosphoric acid (50 μL) was added to quench the reaction, and 90 μL of the reaction mixture was adsorbed on a multiscreen PH plate (Millipore). The plate was washed with 100 mmol/L phosphoric acid. After the plate was dried, 30 μL of MicroScint-O (Perkin-Elmer) was added, and the count per minute was measured on a scintillation counter to determine the inhibitory activity. The peptide substrate was Lys-Lys-Leu-Asn-Arg-Thr-Leu-Ser-Val-Ala.
• % Reference=(X−B)/(Tot−B)×100 • % Inhibition=100−% Reference • X represents count per minute of the well with a test compound applied. • B represents count per minute of the well without the enzyme. • Tot represents count per minute of the well with only DMSO solvent and no test compound applied. (Calculation of MAPKAP-K2 Inhibitory Activity) • IC50 value represents a concentration of compound at which 50% inhibition is observed.

Sequence of recombinant human MAPKAP-K2 (P49137 whole entry): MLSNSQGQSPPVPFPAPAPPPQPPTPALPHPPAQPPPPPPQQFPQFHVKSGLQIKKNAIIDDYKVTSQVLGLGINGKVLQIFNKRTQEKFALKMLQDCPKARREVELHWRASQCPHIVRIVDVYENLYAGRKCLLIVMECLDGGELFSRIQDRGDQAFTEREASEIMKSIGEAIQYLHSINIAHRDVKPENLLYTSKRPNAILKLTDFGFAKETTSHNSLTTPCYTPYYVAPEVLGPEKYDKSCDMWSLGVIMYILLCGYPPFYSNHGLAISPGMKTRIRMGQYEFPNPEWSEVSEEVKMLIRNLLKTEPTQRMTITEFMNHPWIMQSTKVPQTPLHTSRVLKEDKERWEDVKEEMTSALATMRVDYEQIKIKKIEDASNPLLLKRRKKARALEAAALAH

SMILES | IC50 [nM]
CCOc1ccc(Nc2c(C)c(N[C@H]3CCCC[C@@H]3N)c(C#N)c3ccnn23)cc1 (relative stereo) [Compound 101, 5-[(trans-2-Aminocyclohexyl)amino]-7-(4-ethoxyphenylamino)-6-methylpyrazolo[1,5-a]pyridine-4-carbonitrile trifluoroacetate salt] | 10000 to 100000
N#Cc1c(N[C@H]2CC[C@H](N)CC2)cc(Nc2ccccc2Cl)n2nccc12 [Compound 94, 5-(trans-4-Aminocyclohexylamino)-7-(2-chlorophenylamino)pyrazolo[1,5-a]pyridine-4-carbonitrile trifluoroacetate salt] | 200 to 1000
CCOc1ccc(Nc2c(-c3ccccc3)c(NC3CCCNC3)c(C#N)c3ccnn23)cc1 (stereo not shown) [Compound 95, 5-(3-Piperidylamino)-7-(4-ethoxyphenylamino)-6-phenylpyrazolo[1,5-a]pyridine-4-carbonitrile trifluoroacetate salt] | 200 to 1000
Cc1nc2ccc(Nc3cc(N[C@H]4CC[C@H](N)CC4)c(C#N)c4ccnn34)cc2s1 [Compound 96, 5-(trans-4-Aminocyclohexylamino)-7-(2-methylbenzothiazol-6-ylamino)pyrazolo[1,5-a]pyridine-4-carbonitrile trifluoroacetate salt] | 200 to 1000
COc1ccccc1Nc1cc(N[C@H]2CC[C@H](N)CC2)c(C#N)c2ccnn12 [Compound 98, 5-(trans-4-Aminocyclohexylamino)-7-(2-methoxyphenylamino)pyrazolo[1,5-a]pyridine-4-carbonitrile trifluoroacetate salt] | 200 to 1000
CSc1ccccc1Nc1cc(N[C@H]2CC[C@H](N)CC2)c(C#N)c2ccnn12 [Compound 99, 5-(trans-4-Aminocyclohexylamino)-7-(2-methylthiophenylamino)pyrazolo[1,5-a]pyridine-4-carbonitrile trifluoroacetate salt] | 1000 to 10000
N#Cc1c(N[C@H]2CCCNC2)cc(Nc2ccc(-c3ccccc3)cc2)n2nccc12 [Compound 100, 5-[(3S)-3-Piperidylamino]-7-(4-biphenylylamino)pyrazolo[1,5-a]pyridine-4-carbonitrile trifluoroacetate salt] | 200 to 1000
CCOc1ccc(Nc2c(C)c(NC3CCNCC3)c(C#N)c3ccnn23)cc1 [Compound 103, 7-(4-Ethoxyphenylamino)-6-methyl-5-(4-pyperidylamino)pyrazolo[1,5-a]pyridine-4-carbonitrile trifluoroacetate salt] | 200 to 1000
CCOc1ccc(Nc2c(C)c(NC3CCCC(N)C3)c(C#N)c3ccnn23)cc1 (stereo not shown) [Compound 104, 5-[(3-Aminocyclohexyl)amino]-7-[(4-ethoxyphenyl)amino]-6-methylpyrazolo[1,5-a]pyridine-4-carbonitrile trifluoroacetate salt] | 1000 to 10000
CCOc1ccc(Nc2c(C)c(NCCN)c(C#N)c3ccnn23)cc1 [Compound 106, 5-[(2-Aminoethyl)amino]-7-[(4-ethoxyphenyl)amino]-6-methylpyrazolo[1,5-a]pyridine-4-carbonitrile trifluoroacetate salt] | 200 to 1000
CCOc1ccc(Nc2c(C)c(NCCCN)c(C#N)c3ccnn23)cc1 [Compound 107, 5-[(3-Aminopropyl)amino]-7-[(4-ethoxyphenyl)amino]-6-methylpyrazolo[1,5-a]pyridine-4-carbonitrile trifluoroacetate salt] | 200 to 1000
CCOc1ccc(Nc2c(C)c(NCCCCN)c(C#N)c3ccnn23)cc1 [Compound 108, 5-[(4-Aminobutyl)amino]-7-[(4-ethoxyphenyl)amino]-6-methylpyrazolo[1,5-a]pyridine-4-carbonitrile trifluoroacetate salt] | 200 to 1000
CCOc1ccc(Nc2c(C)c(NCC3CCNC3)c(C#N)c3ccnn23)cc1 (stereo not shown) [Compound 112, 7-[(4-Ethoxyphenyl)amino]-6-methyl-5-[(pyrrolidin-3-ylmethyl)amino]pyarzolo[1,5-a]pyridine-4-carbonitrile trifluoroacetate salt] | 1000 to 10000

Next, values leading:

IC50 [nM] | SMILES
< 200 | CCOc1ccc(Nc2c(C)c(N[C@H]3CCCNC3)c(C#N)c3ccnn23)cc1 [Compound 85, 5-[(3S)-3-piperidylamino]-7-(4-ethoxyphenylamino)-6-methylpyrazolo[1,5-a]pyridine-4-carbonitrile]
< 200 | C=CCc1c(N[C@H]2CCCNC2)c(C#N)c2ccnn2c1Nc1ccc(OCC)cc1 [Compound 86, 5-[(3S)-3-Piperidylamino]-7-(4-ethoxyphenylamino)-6-(2-propenyl)pyrazolo[1,5-a]pyridine-4-carbonitrile trifluoroacetate salt]
< 200 | COCCOc1ccc(Nc2c(C)c(N[C@H]3CCCNC3)c(C#N)c3ccnn23)cc1 [Compound 87, 5-[(3S)-3-Piperidylamino]-7-[4-(2-methoxyethoxy)phenylamino]-6-methylpyrazolo[1,5-a]pyridine-4-carbonitrile trifluoroacetate salt]
200 to 1000 | COCCOc1ccc(Nc2c(C)c(N[C@H]3CCNC3)c(C#N)c3ccnn23)cc1 [Compound 88, 5-[(3S)-3-Pyrrolidylamino]-7-[4-(2-methoxyethoxy)phenylamino]-6-methylpyrazolo[1,5-a]pyridine-4-carbonitrile trifluoroacetate salt]
< 200 | COCCOc1ccc(Nc2c(C)c(N[C@H]3CC[C@H](N)CC3)c(C#N)c3ccnn23)cc1 [Compound 89, 5-(trans-4-Aminocyclohexylamino)-7-[4-(2-methoxyethoxy)phenylamino]-6-methylpyrazolo[1,5-a]pyridine-4-carbonitrile trifluoroacetate salt]
< 200 | CCOc1ccc(Nc2c(CCO)c(N[C@H]3CCCNC3)c(C#N)c3ccnn23)cc1 [Compound 90, 5-[(3S)-3-Piperidylamino]-7-(4-ethoxyphenylamino)-6-(2-hydroxyethyl)pyrazolo[1,5-a]pyridine-4-carbonitrile]
< 200 | Cc1nc2ccc(Nc3c(C)c(N[C@H]4CCCNC4)c(C#N)c4ccnn34)cc2s1 [Compound 91, 5-[(3S)-3-Piperidylamino]-7-(2-methylbenzothiazol-6-ylamino)-6-methylpyrazolo[1,5-a]pyridine-4-carbonitrile]
200 to 1000 | CCOc1ccc(Nc2cc(N[C@H]3CCCNC3)c(C#N)c3ccnn23)cc1 [Compound 92, 5-[(3S)-3-Piperidylamino]-7-(4-ethoxyphenylamino)pyrazolo[1,5-a]pyridine-4-carbonitrile trifluoroacetate salt]
200 to 1000 | N#Cc1c(N[C@H]2CCCNC2)cc(Nc2ccccc2Cl)n2nccc12 [Compound 93, 5-[(3S)-3-Piperidylamino]-7-(2-chlorophenylamino)pyrazolo[1,5-a]pyridine-4-carbonitrile trifluoroacetate salt]
< 200 | N#Cc1c(N[C@H]2CC[C@H](N)CC2)cc(Nc2ccc(-c3ccccc3)cc2)n2nccc12 [Compound 97, 5-(trans-4-Aminocyclohexylamino)-7-(4-biphenylylamino)pyrazolo[1,5-a]pyridine-4-carbonitrile trifluoroacetate salt]
< 200 | CCOc1ccc(Nc2c(C)c(N[C@H]3CC[C@H](N)CC3)c(C#N)c3ccnn23)cc1 [Compound 102, 5-[(trans-4-Aminocyclohexyl)amino]-7-(4-ethoxyphenylamino)-6-methylpyrazolo[1,5-a]pyridine-4-carbonitrile trifluoroacetate salt]
< 200 | CCOc1ccc(Nc2c(CC)c(N[C@H]3CCCNC3)c(C#N)c3ccnn23)cc1 [Compound 105, 5-[(3S)-3-Piperidylamino]-7-(4-ethoxyphenylamino)-6-ethylpyrazolo [1,5-a]pyridine-4-carbonitrile]
< 200 | CCOc1ccc(Nc2c(CC)c(N[C@H]3CC[C@H](N)CC3)c(C#N)c3ccnn23)cc1 [Compound 109, 5-(trans-4-Aminocyclohexylamino)-7-(4-ethoxyphenylamino)-6-ethylpyrazolo[1,5-a]pyridine-4-carbonitrile]
< 200 | CCOc1ccc(Nc2c(C)c(N[C@H]3CC[C@H](NCC(C)C)CC3)c(C#N)c3ccnn23)cc1 [Compound 110, 7-[(4-Ethoxyphenyl)amino]-6-methyl-5-(trans-{4-[(2-methylpropyl)amino]cyclohexyl}amino)pyrazolo[1,5-a]pyridine-4-carbonitrile trifluoroacetate salt]
< 200 | Cc1c(N[C@H]2CCCNC2)c(C#N)c2ccnn2c1Nc1ccccc1 [Compound 111, 5-[((3S)-(3-Piperidyl))amino]-6-methyl-7-(phenylamino)pyrazolo[1,5-a]pyridine-4-carbonitrile trifluoroacetate salt]
